Assay: mn = molality of the nth substance listed, in mol/kg
Conditions: 101.3 kPa, Liquid, Vibrating tube method

O=C([O-])CC(O)(CC(=O)[O-])C(=O)[O-].[Li+].[Li+].[Li+] [trilithium citrate] + O
Conditions	mass density [kg/m3]
278.15 K, m1 = 0.0128	1002
278.15 K, m1 = 0.0256	1003.88
278.15 K, m1 = 0.06	1008.52
278.15 K, m1 = 0.1021	1013.86
278.15 K, m1 = 0.1956	1026.51
278.15 K, m1 = 0.293	1038.92
278.15 K, m1 = 0.3876	1050.53
278.15 K, m1 = 0.4799	1061.45
278.15 K, m1 = 0.6695	1083.25
278.15 K, m1 = 0.7552	1092.43
278.15 K, m1 = 0.8394	1101.64
278.15 K, m1 = 0.9407	1112.23
278.15 K, m1 = 1.33	1149.11
278.15 K, m1 = 1.74	1185.46
283.15 K, m1 = 0.0128	1001.66
283.15 K, m1 = 0.0256	1003.48
283.15 K, m1 = 0.06	1008.09
283.15 K, m1 = 0.1021	1013.43
283.15 K, m1 = 0.1956	1025.89
283.15 K, m1 = 0.293	1038.19
283.15 K, m1 = 0.3876	1049.67
283.15 K, m1 = 0.4799	1060.48
283.15 K, m1 = 0.6695	1082.11
283.15 K, m1 = 0.7552	1091.22
283.15 K, m1 = 0.8394	1100.37
283.15 K, m1 = 0.9407	1110.89
283.15 K, m1 = 1.33	1147.56
283.15 K, m1 = 1.74	1183.73
288.15 K, m1 = 0.0128	1001.03
288.15 K, m1 = 0.0256	1002.83
288.15 K, m1 = 0.06	1007.41
288.15 K, m1 = 0.1021	1012.68
288.15 K, m1 = 0.1956	1025.03
288.15 K, m1 = 0.293	1037.23
288.15 K, m1 = 0.3876	1048.63
288.15 K, m1 = 0.4799	1059.37
288.15 K, m1 = 0.6695	1080.85
288.15 K, m1 = 0.7552	1089.92
288.15 K, m1 = 0.8394	1099.01
288.15 K, m1 = 0.9407	1109.48
288.15 K, m1 = 1.33	1145.98
288.15 K, m1 = 1.74	1182.04
293.15 K, m1 = 0.0128	1000.13
293.15 K, m1 = 0.0256	1001.93
293.15 K, m1 = 0.06	1006.4
293.15 K, m1 = 0.1021	1011.71
293.15 K, m1 = 0.1956	1023.97
293.15 K, m1 = 0.293	1036.06
293.15 K, m1 = 0.3876	1047.42
293.15 K, m1 = 0.4799	1058.1
293.15 K, m1 = 0.6695	1079.46
293.15 K, m1 = 0.7552	1088.49
293.15 K, m1 = 0.8394	1097.55
293.15 K, m1 = 0.9407	1107.97
293.15 K, m1 = 1.33	1144.34
293.15 K, m1 = 1.74	1180.29
298.15 K, m1 = 0.0128	998.94
298.15 K, m1 = 0.0256	1000.72
298.15 K, m1 = 0.06	1005.21
298.15 K, m1 = 0.1021	1010.53
298.15 K, m1 = 0.1956	1022.63
298.15 K, m1 = 0.293	1034.68
298.15 K, m1 = 0.3876	1045.95
298.15 K, m1 = 0.4799	1056.57
298.15 K, m1 = 0.6695	1077.86
298.15 K, m1 = 0.7552	1086.85
298.15 K, m1 = 0.8394	1095.87
298.15 K, m1 = 0.9407	1106.24
298.15 K, m1 = 1.33	1142.51
298.15 K, m1 = 1.74	1178.37
303.15 K, m1 = 0.0128	997.54
303.15 K, m1 = 0.0256	999.32
303.15 K, m1 = 0.06	1003.8
303.15 K, m1 = 0.1021	1008.95
303.15 K, m1 = 0.1956	1021.12
303.15 K, m1 = 0.293	1033.1
303.15 K, m1 = 0.3876	1044.36
303.15 K, m1 = 0.4799	1054.93
303.15 K, m1 = 0.6695	1076.13
303.15 K, m1 = 0.7552	1085.11
303.15 K, m1 = 0.8394	1094.1
303.15 K, m1 = 0.9407	1104.46
303.15 K, m1 = 1.33	1140.64
303.15 K, m1 = 1.74	1176.43
308.15 K, m1 = 0.0128	995.93
308.15 K, m1 = 0.0256	997.69
308.15 K, m1 = 0.06	1002.15
308.15 K, m1 = 0.1021	1007.28
308.15 K, m1 = 0.1956	1019.42
308.15 K, m1 = 0.293	1031.35
308.15 K, m1 = 0.3876	1042.52
308.15 K, m1 = 0.4799	1053.1
308.15 K, m1 = 0.6695	1074.26
308.15 K, m1 = 0.7552	1083.2
308.15 K, m1 = 0.8394	1092.17
308.15 K, m1 = 0.9407	1102.51
308.15 K, m1 = 1.33	1138.61
308.15 K, m1 = 1.74	1174.35
313.15 K, m1 = 0.0128	994.08
313.15 K, m1 = 0.0256	995.83
313.15 K, m1 = 0.06	1000.28
313.15 K, m1 = 0.1021	1005.41
313.15 K, m1 = 0.1956	1017.49
313.15 K, m1 = 0.293	1029.43
313.15 K, m1 = 0.3876	1040.59
313.15 K, m1 = 0.4799	1051.12
313.15 K, m1 = 0.6695	1072.2
313.15 K, m1 = 0.7552	1081.14
313.15 K, m1 = 0.8394	1090.09
313.15 K, m1 = 0.9407	1100.41
313.15 K, m1 = 1.33	1136.47
313.15 K, m1 = 1.74	1172.18
318.15 K, m1 = 0.0128	992.05
318.15 K, m1 = 0.0256	993.81
318.15 K, m1 = 0.06	998.26
318.15 K, m1 = 0.1021	1003.38
318.15 K, m1 = 0.1956	1015.42
318.15 K, m1 = 0.293	1027.35
318.15 K, m1 = 0.3876	1038.47
318.15 K, m1 = 0.4799	1048.98
318.15 K, m1 = 0.6695	1070.04
318.15 K, m1 = 0.7552	1078.96
318.15 K, m1 = 0.8394	1087.9
318.15 K, m1 = 0.9407	1098.21
318.15 K, m1 = 1.33	1134.23
318.15 K, m1 = 1.74	1169.9
323.15 K, m1 = 0.0128	989.86
323.15 K, m1 = 0.0256	991.58
323.15 K, m1 = 0.06	996.08
323.15 K, m1 = 0.1021	1001.19
323.15 K, m1 = 0.1956	1013.22
323.15 K, m1 = 0.293	1025.12
323.15 K, m1 = 0.3876	1036.24
323.15 K, m1 = 0.4799	1046.74
323.15 K, m1 = 0.6695	1067.78
323.15 K, m1 = 0.7552	1076.68
323.15 K, m1 = 0.8394	1085.62
323.15 K, m1 = 0.9407	1095.92
323.15 K, m1 = 1.33	1131.93
323.15 K, m1 = 1.74	1167.57
328.15 K, m1 = 0.0128	987.52
328.15 K, m1 = 0.0256	989.24
328.15 K, m1 = 0.06	993.72
328.15 K, m1 = 0.1021	998.82
328.15 K, m1 = 0.1956	1010.84
328.15 K, m1 = 0.293	1022.76
328.15 K, m1 = 0.3876	1033.86
328.15 K, m1 = 0.4799	1044.36
328.15 K, m1 = 0.6695	1065.38
328.15 K, m1 = 0.7552	1074.27
328.15 K, m1 = 0.8394	1083.21
328.15 K, m1 = 0.9407	1093.5
328.15 K, m1 = 1.33	1129.51
328.15 K, m1 = 1.74	1165.14
333.15 K, m1 = 0.0128	985.04
333.15 K, m1 = 0.0256	986.7
333.15 K, m1 = 0.06	991.24
333.15 K, m1 = 0.1021	996.31
333.15 K, m1 = 0.1956	1008.42
333.15 K, m1 = 0.293	1020.27
333.15 K, m1 = 0.3876	1031.35
333.15 K, m1 = 0.4799	1041.87
333.15 K, m1 = 0.6695	1062.87
333.15 K, m1 = 0.7552	1071.77
333.15 K, m1 = 0.8394	1080.69
333.15 K, m1 = 0.9407	1090.99
333.15 K, m1 = 1.33	1127.01
333.15 K, m1 = 1.74	1162.66
338.15 K, m1 = 0.0128	982.43
338.15 K, m1 = 0.0256	984.02
338.15 K, m1 = 0.06	988.59
338.15 K, m1 = 0.1021	993.66
338.15 K, m1 = 0.1956	1005.8
338.15 K, m1 = 0.293	1017.67
338.15 K, m1 = 0.3876	1028.73
338.15 K, m1 = 0.4799	1039.22
338.15 K, m1 = 0.6695	1060.25
338.15 K, m1 = 0.7552	1069.15
338.15 K, m1 = 0.8394	1078.19
338.15 K, m1 = 0.9407	1088.43
338.15 K, m1 = 1.33	1124.43
338.15 K, m1 = 1.74	1160.09
343.15 K, m1 = 0.0128	979.51
343.15 K, m1 = 0.0256	981.2
343.15 K, m1 = 0.06	985.85
343.15 K, m1 = 0.1021	990.99
343.15 K, m1 = 0.1956	1002.94
343.15 K, m1 = 0.293	1014.95
343.15 K, m1 = 0.3876	1026.06
343.15 K, m1 = 0.4799	1036.55
343.15 K, m1 = 0.6695	1057.62
343.15 K, m1 = 0.7552	1066.41
343.15 K, m1 = 0.8394	1075.46
343.15 K, m1 = 0.9407	1085.78
343.15 K, m1 = 1.33	1121.83
343.15 K, m1 = 1.74	1157.54

O=C([O-])CC(O)(CC(=O)[O-])C(=O)[O-].[NH4+].[NH4+].[NH4+] [ammonium 2-hydroxypropane-1,2,3-tricarboxylate] + O
mass density [kg/m3]
Conditions	m1 = 0.0125	m1 = 0.025	m1 = 0.04999	m1 = 0.09998	m1 = 0.1499	m1 = 0.2
283.15 K	1001.9	1003.43	1006.27	1011.68	1017.03	1022.12
287.15 K	1001.25	1002.76	1005.56	1010.91	1016.2	1021.24
293.15 K	1000.32	1001.83	1004.59	1009.9	1015.14	1020.13
298.15 K	999.12	1000.6	1003.33	1008.6	1013.82	1018.77
303.15 K	997.71	999.18	1001.88	1007.13	1012.32	1017.26
308.15 K	996.07	997.53	1000.22	1005.44	1010.62	1015.55
313.15 K	994.23	995.69	998.32	1003.56	1008.75	1013.67
318.15 K	992.21	993.66	996.29	1001.54	1006.7	1011.63
323.15 K	990.03	991.47	994.08	999.34	1004.49	1009.46
328.15 K	987.68	989.12	991.7	996.99	1002.14	1007.11
333.15 K	985.17	986.62	989.15	994.46	999.65	1004.59

Source: the NIST ThermoML archive (doi:10.1016/j.jct.2016.04.020)
